Consider eleven compounds from ChEMBL document CHEMBL1201862, “PubChem BioAssay data set” (2004).

Molecules are shown by their SMILES.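 How tested: cells in 96-well plates exposed to compound for 48 hours at five concentrations. Here, GI50 denotes the concentration required for 50% inhibition of growth.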 The source made the active and inactive calls. Cut-off read from the data, not from the text of the source: active = GI50 up to about 1.1 µM and inactive = higher.

Among the test systems are EKVX; A549; HL-60; NCI-H522; CCRF-CEM; IGROV-1; COLO 205; Malme-3M; SNB-19; OVCAR-3; KM12; DU-145; UO-31; HCT-116; NCI/ADR-RES; OVCAR-4; NCI-H460; UACC-257; MDA-MB-231; RXF 393.
What all share (assay): inhibition of tumour cell growth, NCI panel, 48 h

As to `CCOC(=O)C1=CN2C(=N[C@H]3CCCC[C@@H]32)NC1=O`, the GI50 in the test with EKVX, with A549, in the test on HL-60, in the test with NCI-H522, in the test on CCRF-CEM and with IGROV-1 was > 100 µM (inactive) in each case. Also, the GI50 in the test with COLO 205, with Malme-3M, in the test with SNB-19, with OVCAR-3, with KM12 and in the test with DU-145 was > 100 µM (inactive) each time. Further, the GI50 in the test with UO-31, in the test with HCT-116, in the test with NCI/ADR-RES, in the test with OVCAR-4, in the test with NCI-H460 and with UACC-257 was > 100 µM (inactive) throughout. Also, the GI50 in the test on MDA-MB-231 is > 100 µM (inactive).

On to `C[C@]12CC/C(=N\OCCN3CCCCC3)C=C1CCC1C2CC[C@@]2(C)C1CC[C@]2(C)O` (stereo partly specified), for which the GI50 with EKVX was 16.2 µM (inactive); with A549 it was 12.2 µM (inactive); in the test on NCI-H522, 2.24 µM (inactive); in the test with CCRF-CEM it was 3.2 µM (inactive); with IGROV-1 it was 11.9 µM (inactive); in the test on COLO 205, 8.17 µM (inactive). Further, the GI50 in the test with Malme-3M is 11.2 µM (inactive); in the test with SNB-19 it was 11.9 µM (inactive); in the test with OVCAR-3, 17 µM (inactive); in the test on KM12, 10.4 µM (inactive); in the test on DU-145, 13.2 µM (inactive); in the test with UO-31, 11.1 µM (inactive). Besides, the GI50 in the test on HCT-116 was 7.38 µM (inactive); with NCI/ADR-RES, 5.27 µM (inactive); with OVCAR-4 it was 19.8 µM (inactive); with NCI-H460, 5.26 µM (inactive); with UACC-257 it was 5.57 µM (inactive); in the test on MDA-MB-231, 11.7 µM (inactive). In the test on RXF 393, the GI50 was 16.2 µM (inactive).

In the case of `CC(C)[Si](OC12CCC(CC1O)CC2CO)(C(C)C)C(C)C` (stereo unspecified), the GI50 in the test on A549 was 10.4 µM (inactive); in the test on HL-60, 1.34 µM (inactive); in the test on CCRF-CEM, 13.4 µM (inactive); in the test with COLO 205, 18 µM (inactive); with SNB-19, 15.3 µM (inactive); with OVCAR-3, 14.5 µM (inactive). Further, the GI50 in the test with KM12 was 12.7 µM (inactive); with DU-145, 16.9 µM (inactive); with UO-31, 13.9 µM (inactive); in the test with HCT-116, 8 µM (inactive); in the test with NCI/ADR-RES it was 15 µM (inactive); in the test on OVCAR-4, 11.5 µM (inactive). The GI50 with NCI-H460 is 12.6 µM (inactive); in the test with UACC-257, 13.7 µM (inactive); in the test with MDA-MB-231 it was 19.7 µM (inactive).

For `C/C=C\C(CC(=O)NCCc1cn(C(=O)OCc2ccccc2)c2ccccc12)CC(=O)OC` (stereo unspecified), the GI50 with EKVX is 45.2 µM (inactive); with A549, 50.5 µM (inactive); with NCI-H522 it was 48.8 µM (inactive); with IGROV-1 it was 76.7 µM (inactive); in the test on COLO 205, 40.6 µM (inactive); in the test with Malme-3M it was > 100 µM (inactive). Also, the GI50 in the test on SNB-19 is 63.1 µM (inactive); in the test on OVCAR-3, 69.7 µM (inactive); in the test on KM12, 62.5 µM (inactive); with DU-145 it was > 100 µM (inactive); in the test on UO-31 it was 50.8 µM (inactive); in the test on HCT-116 it was 91.4 µM (inactive). In addition, the GI50 is 41.8 µM (inactive) with NCI/ADR-RES; 35.9 µM (inactive) in the test with OVCAR-4; > 100 µM (inactive) with NCI-H460; 52.8 µM (inactive) with UACC-257; > 100 µM (inactive) with MDA-MB-231; 56.4 µM (inactive) in the test with RXF 393.

As to `NNC(=O)c1cccc2c1Oc1ccccc1S2`, the GI50 with EKVX was 23.8 µM (inactive); in the test with HL-60, 79.6 µM (inactive); with CCRF-CEM it was 63.1 µM (inactive); with IGROV-1, > 100 µM (inactive); in the test on COLO 205 it was > 100 µM (inactive); with SNB-19, > 100 µM (inactive). The GI50 in the test with KM12 was > 100 µM (inactive); in the test with DU-145, 69 µM (inactive); with UO-31 it was > 100 µM (inactive); in the test on HCT-116, > 100 µM (inactive); in the test with NCI/ADR-RES, 83.9 µM (inactive); in the test on OVCAR-4 it was > 100 µM (inactive). In addition, the GI50 is > 100 µM (inactive) in the test with NCI-H460, > 100 µM (inactive) in the test on UACC-257, > 100 µM (inactive) in the test on MDA-MB-231 and 59.3 µM (inactive) in the test on RXF 393.

Regarding `FC(F)(F)c1cc(Cl)cnc1N/N=C(/c1ccccc1)c1ccccn1`, the GI50 in the test on EKVX is 1.03 µM (active); with A549 it was 3.03 µM (inactive); in the test on NCI-H522, 1.57 µM (inactive); with CCRF-CEM, 0.492 µM (active); in the test with IGROV-1, 1.92 µM (inactive); in the test with COLO 205 it was 2.03 µM (inactive). Further, the GI50 was 4.67 µM (inactive) with SNB-19; 1.82 µM (inactive) in the test with OVCAR-3; 1.85 µM (inactive) in the test on KM12; 4.46 µM (inactive) in the test with DU-145; 2.94 µM (inactive) in the test on UO-31; 3.16 µM (inactive) in the test with HCT-116. The GI50 in the test with NCI/ADR-RES is 2.34 µM (inactive); in the test with OVCAR-4, 6.67 µM (inactive); with NCI-H460, 3.68 µM (inactive); in the test with UACC-257, 3.04 µM (inactive); with MDA-MB-231 it was 4.09 µM (inactive); in the test on RXF 393 it was 9.66 µM (inactive).

`CC1(C)CC2=NOS3=C2C(=NO3)C1c1ccccn1` (stereo unspecified): the GI50 with EKVX is > 100 µM (inactive); in the test on A549, 83.2 µM (inactive); in the test on HL-60 it was 24.3 µM (inactive); in the test on NCI-H522, 38.5 µM (inactive); in the test on CCRF-CEM, 29 µM (inactive); with IGROV-1, 29.6 µM (inactive). For the same compound, the GI50 in the test on COLO 205 is 31.2 µM (inactive); with Malme-3M, 46.9 µM (inactive); in the test with SNB-19, > 100 µM (inactive); in the test with OVCAR-3, 31 µM (inactive); with KM12 it was 61.2 µM (inactive); in the test with DU-145 it was > 100 µM (inactive). In addition, the GI50 is 61.7 µM (inactive) in the test on UO-31; 48.8 µM (inactive) in the test with HCT-116; > 100 µM (inactive) in the test with NCI/ADR-RES; > 100 µM (inactive) with OVCAR-4; 33.7 µM (inactive) with NCI-H460; 28.9 µM (inactive) in the test with UACC-257. Further, the GI50 in the test with MDA-MB-231 is > 100 µM (inactive).

With `Cc1ccc(N2C(=O)C3c4[nH]c5ccc(C)cc5c4C4CCC(C(C)(C)C)CC4C3C2=O)cc1` (stereo unspecified), the GI50 was 10.8 µM (inactive) in the test with EKVX; 13.6 µM (inactive) with A549; 17.3 µM (inactive) with HL-60; 14.3 µM (inactive) with NCI-H522; 7.59 µM (inactive) with CCRF-CEM; 13.1 µM (inactive) with IGROV-1. Further, the GI50 is 15.2 µM (inactive) in the test with COLO 205; 14 µM (inactive) in the test with Malme-3M; 26.5 µM (inactive) in the test on SNB-19; 12.1 µM (inactive) in the test with OVCAR-3; 18 µM (inactive) in the test on KM12; 17.8 µM (inactive) in the test on DU-145. The GI50 in the test with UO-31 is 37.9 µM (inactive); in the test with HCT-116 it was 14.3 µM (inactive); with NCI/ADR-RES it was 19.5 µM (inactive); in the test on OVCAR-4 it was 6.27 µM (inactive); with NCI-H460, 7.36 µM (inactive); in the test with UACC-257, 33.1 µM (inactive). Moreover, the GI50 in the test with MDA-MB-231 was 10.3 µM (inactive).

For the compound `COc1ccc([C@H]2C=C(c3cc(F)c(Cl)cc3Cl)N=c3s/c(=C\c4ccc(-c5ccc(Cl)cc5Cl)o4)c(=O)n32)cc1`, the GI50 in the test on A549 is > 100 µM (inactive); in the test on NCI-H522 it was 52.2 µM (inactive); in the test with IGROV-1, 30.3 µM (inactive); in the test with COLO 205, 80 µM (inactive); in the test on Malme-3M, 99.1 µM (inactive); in the test with SNB-19, 31.9 µM (inactive). In addition, the GI50 is 60.1 µM (inactive) with KM12; 71 µM (inactive) with DU-145; 32.9 µM (inactive) with UO-31; 35.1 µM (inactive) in the test with HCT-116; 44.5 µM (inactive) in the test with NCI/ADR-RES; 37.3 µM (inactive) with OVCAR-4. Besides, the GI50 was 48.4 µM (inactive) with NCI-H460, 30 µM (inactive) with UACC-257, 25.5 µM (inactive) in the test on MDA-MB-231 and 39.6 µM (inactive) with RXF 393.

In the case of `CCCCCCCCCC(=O)NC(CCC(=O)N(CCNC(=O)c1nc(-c2ccccc2)oc1-c1ccccc1)Cc1ccccc1)C(=O)O` (stereo unspecified), the GI50 in the test on EKVX is 16.6 µM (inactive); in the test on A549, 17.4 µM (inactive); in the test on NCI-H522, 18.5 µM (inactive); in the test with IGROV-1 it was 19.5 µM (inactive); in the test on COLO 205, 19.6 µM (inactive); in the test with Malme-3M, 16.4 µM (inactive). For the same compound, the GI50 is 17.4 µM (inactive) in the test on SNB-19; 16.3 µM (inactive) in the test on OVCAR-3; 19.7 µM (inactive) with KM12; 20.3 µM (inactive) in the test on DU-145; 15.2 µM (inactive) in the test with UO-31; 17.7 µM (inactive) in the test on HCT-116. The GI50 with NCI/ADR-RES was 16.6 µM (inactive); in the test with OVCAR-4, 20.5 µM (inactive); with NCI-H460, 38.1 µM (inactive); with UACC-257, 23.4 µM (inactive); in the test on MDA-MB-231 it was 19.9 µM (inactive); with RXF 393, 17.6 µM (inactive).

Consider `C=C1C(NC)CCC23CC24CCC2(C)C(C(C)=O)C(O)CC2(C)C4CCC13` (stereo unspecified), for which the GI50 with EKVX is > 100 µM (inactive); in the test on A549, > 100 µM (inactive); in the test with HL-60, 62.7 µM (inactive); in the test with NCI-H522 it was 84.9 µM (inactive); with CCRF-CEM it was 54.8 µM (inactive); with IGROV-1, > 100 µM (inactive). Further, the GI50 with COLO 205 is > 100 µM (inactive); in the test on Malme-3M, > 100 µM (inactive); in the test with SNB-19, > 100 µM (inactive); in the test on OVCAR-3 it was > 100 µM (inactive); in the test on KM12, 56.1 µM (inactive); in the test with DU-145, > 100 µM (inactive). For the same compound, the GI50 in the test on UO-31 is > 100 µM (inactive); in the test with HCT-116 it was 70.3 µM (inactive); in the test on NCI/ADR-RES it was > 100 µM (inactive); in the test on OVCAR-4, > 100 µM (inactive); with NCI-H460, > 100 µM (inactive); in the test on UACC-257, > 100 µM (inactive). Moreover, the GI50 in the test on MDA-MB-231 was > 100 µM (inactive).
